{"source": "patent US6635278B1", "about": "“Pharmaceutical formulations” (Gilead Sciences, Inc., priority 1998, dated 2003)", "key": {"[1]": {"experiment": "AD solubility in crystallization solvents", "format": "physicochemical"}, "[2]": {"experiment": "Stability of aqueous AD solutions versus pH", "format": "physicochemical"}}}
{"smiles": "CC(C)(C)C(=O)OCOP(=O)(COCCn1cnc2c(N)ncnc21)OCOC(=O)C(C)(C)C", "note": "[AD, 9-[2-[[bis[(pivaloyloxy)methyl]phosphono]methoxy]ethyl]adenine]", "values": [{"measurement": "AD content the solvent can contain", "setting": "[1]; methanol or CH2Cl2", "result": "more than 50%"}, {"measurement": "upper limit of solubility of AD", "setting": "[1]; most crystallization solvents at room temperature", "result": "10-41%"}, {"measurement": "solubility", "setting": "[1]; organic solvent or mixture, in di-n-butyl ether", "result": "< 300", "unit": "µg/mL"}, {"measurement": "pH of maximum stability", "setting": "[2]", "result": "3-5"}]}
